Laboratory results: patent US20010003780A1, “Retinoid antagonists and uses thereof” (priority 1997, published 2001)

System: trauma-induced caecal adhesion in rats
Experiment: trauma-induced caecal adhesion model in rats
Assay type: in vivo, rat
Description: Models of peritoneal adhesions induced by surgical trauma have been used to predict the clinical activity of a number of marketed anti-adhesion barrier devices. One such model is the trauma-induced caecal adhesion model in rats. A representative retinoid antagonist compound of the present invention, 4-{{(E)-(5,6-dihydro-5,5-dimethyl-8-phenyl)-2-naphthalenyl]vinyl]benzoic acid of the formula [drawing 49]
Adult female Wistar rats were used in our studies. The trauma induction was carried out using aseptic conditions in animals anesthetized with a mixture of Ketamine (100 mg/kg) and Rompun (10 mg/kg) given IP. A 2 cm midline abdominal incision was made and the caecum was exteriorized. Both sides of the caecum were abraded with a dry gauze until there was evidence of punctate bleeding. After replacing the organ in the abdominal cavity, the incision was closed. Trauma to the caecum produces fibrous scar tissue or adhesions to adjacent organs, peritoneal wall, or the omentum. Animals were treated with test compound orally or by intravenous injection or intra-abdominally by direct instillation into the peritoneal cavity. Oral treatments were administered once daily for up to 7 days. Intra-abdominal treatments were applied once post-trauma and just prior to wound closure.
On the seventh postoperative day, the animals were sacrificed and the peritoneal cavity was exposed and examined for adhesions. Three criteria that were used to evaluate the adhesions are: severity of the adhesions, extent or area of the ceacum involved with adhesions and the number of adhesions formed in each animal. Statistical analysis of the data was performed using students' T test. The following scoring system was used:
The test compound described above administered by the intra-abdominal route was compared to some other representative retinoid antagonists of the present invention. A single dose of compound in 3 ml volume was instilled over the traumatized caecum and abdominal cavity prior to closing the incision. Seven days later the animals were sacrificed and the abdominal cavity was examined for adhesions to the caecum.

[1] = administered orally for 7 days, 10 and 15 mg/kg, compared to the vehicle control (FIG. 1)

| Structure (SMILES) | effect on trauma induced adhesions (number, severity and extent of caecal adhesions) (orally administered, at twice the dose of the test compound (Table 1)) | number of adhesions per animal [1] | severity of adhesions per animal [1] | severity of caecal adhesions (single intra-abdominal application at 5 mg in 3 ml, examined seven days later (Table 2)) | number of adhesions formed (single intra-abdominal application at 5 mg in 3 ml, examined seven days later, compared to the vehicle control (Table 2)) |
| --- | --- | --- | --- | --- | --- |
| CC1=C(/C=C/C(C)=C/C=C/C(C)=C/C(=O)O)C(C)(C)CCC1 [All-trans retinoic acid, all-trans retinoic acid, reference compound] | no significant effect |  |  |  |  |
| CC1(C)CC=C(c2ccccc2)c2cc(/C=C/c3ccc(C(=O)O)cc3)ccc21 [compound A, 4-{{(E)-(5,6-dihydro-5,5-dimethyl-8-phenyl)-2-naphthalenyl]vinyl]benzoic acid] |  | significantly reduced | significantly reduced | effectively reduced | significantly reduced |
